Earlier results on 1 compound are cited in patent publication US20250032516A1, “COMPOSITIONS AND METHODS FOR TREATING EPILEPSY” (POVIVA CORP, priority 2023, published 2025).

The conditions of this data set: children with Dravet syndrome.

Read-outs that look alike come from different tables or passages of the source.

Turning to `C=C(C)[C@@H]1CCC(C)=C[C@H]1c1c(O)cc(CCCCC)cc1O` [Cannabidiol, 2-[(1R,6R)-6-Isopropenyl-3-methylcyclohex-2-en-1-yl]-5-pentylbenzene-1,3-diol], the “Plasma concentration on Day 1 at starting CBD dose, 5 hours, Mean (SD)” value (“Plasma concentration … 5 hours, Mean (SD)” for short) (5 mg/kg/day group (N = 10)) is recorded as 10.0 (5.74) ng/mL; the “Plasma concentration … 5 hours, Mean (SD)” value (10 mg/kg/day group (N = 8)) is given as 11.3 (11.7) ng/mL; the “Plasma concentration … 5 hours, Mean (SD)” value (20 mg/kg/day group (N = 9)) is 25.3 (42.4) ng/mL. The “Plasma concentration on Day 1 at starting CBD dose, […], Mean (SD)” value is, setting by setting: (5 mg/kg/day group (N = 10)) 37.6 (53.7) ng/mL; (10 mg/kg/day group (N = 8)) 34.4 (32.1) ng/mL; (20 mg/kg/day group (N = 9)) 29.3 (28.5) ng/mL.
